From ChEMBL document CHEMBL4049403, “Oligo-aspartic acid conjugates with benzo[c][2,6]naphthyridine-8-carboxylic acid scaffold as picomolar inhibitors of CK2” (Bioorg Med Chem, 2017) come the findings set out here.

Structures are written as SMILES. Where a SMILES comes first, the peptide text is derived from it. The star is where a group is joined. X1 = O=C(O)c1ccc2c(c1)nc(OCCCCCCCCC(=O)*)c1ccncc12

The target in experiment [1] is Serine/threonine-protein kinase pim-3 (Homo sapiens) (UniProt Q86V86). Put plainly: Inhibition of human PIM3 assessed as residual activity at 1 uM in presence of [33P]ATP by filter binding assay relative to control.
Experiment [2] addresses Serine/threonine-protein kinase 3 (Homo sapiens) (UniProt Q13188). Briefly: Inhibition of human MST2 assessed as residual activity at 1 uM in presence of [33P]ATP by filter binding assay relative to control.
The target in experiment [3] is Mitogen-activated protein kinase kinase kinase 5 (Homo sapiens) (UniProt Q99683). Put plainly: Inhibition of human ASK1 assessed as residual activity at 1 uM in presence of [33P]ATP by filter binding assay relative to control.
The target in experiment [4] is Serine/threonine-protein kinase STK11 (Homo sapiens) (UniProt Q15831). Briefly: Inhibition of human LKB1 assessed as residual activity at 1 uM in presence of [33P]ATP by filter binding assay relative to control.
Experiment [5] has as its target Dual specificity tyrosine-phosphorylation-regulated kinase 1A (Homo sapiens) (UniProt Q13627). Put plainly: Inhibition of human DYRK1A assessed as residual activity at 1 uM in presence of 33P-ATP by filter-binding assay relative to control.
The target of experiment [6] is Angiopoietin-1 receptor (Homo sapiens) (UniProt Q02763). Briefly: Inhibition of human TIE2 assessed as residual activity at 1 uM in presence of 33P-ATP by filter-binding assay relative to control.
Experiment [7] has as its target Tyrosine-protein kinase JAK2 (Homo sapiens) (UniProt O60674). Briefly: Inhibition of human JAK2 assessed as residual activity at 1 uM in presence of [33P]ATP by filter binding assay relative to control.
The target of experiment [8] is TGF-beta receptor type-1 (Homo sapiens) (UniProt P36897). Put plainly: Inhibition of human TGFBR1 assessed as residual activity at 1 uM in presence of [33P]ATP by filter binding assay relative to control.
For experiment [9], the target named is Maternal embryonic leucine zipper kinase (Homo sapiens) (UniProt Q14680). Briefly: Inhibition of human MELK assessed as residual activity at 1 uM in presence of [33P]ATP by filter binding assay relative to control.
Experiment [10] has as its target Mitogen-activated protein kinase 9 (Homo sapiens) (UniProt P45984). Briefly: Inhibition of human JNK2 assessed as residual activity at 1 uM in presence of [33P]ATP by filter binding assay relative to control.
For experiment [11], the target named is Serine/threonine-protein kinase MARK2 (Homo sapiens) (UniProt Q7KZI7). Put plainly: Inhibition of human MARK2 assessed as residual activity at 1 uM in presence of [33P]ATP by filter binding assay relative to control.
The target in experiment [12] is Serine/threonine-protein kinase ULK2 (Homo sapiens) (UniProt Q8IYT8). Briefly: Inhibition of human ULK2 assessed as residual activity at 1 uM in presence of [33P]ATP by filter binding assay relative to control.
For experiment [13], the target named is MAP kinase-interacting serine/threonine-protein kinase 1 (Homo sapiens) (UniProt Q9BUB5). Put plainly: Inhibition of human MNK1 assessed as residual activity at 1 uM in presence of [33P]ATP by filter binding assay relative to control.
Experiment [14] addresses Tyrosine-protein kinase SYK (Homo sapiens) (UniProt P43405). Put plainly: Inhibition of human SYK assessed as residual activity at 1 uM in presence of [33P]ATP by filter binding assay relative to control.
Experiment [15] concerns the target Eukaryotic elongation factor 2 kinase (Homo sapiens) (UniProt O00418). Put plainly: Inhibition of human EF2K assessed as residual activity at 1 uM in presence of [33P]ATP by filter binding assay relative to control.
The target in experiment [16] is Mitogen-activated protein kinase 8 (Homo sapiens) (UniProt P45983). Briefly: Inhibition of human JNK1 assessed as residual activity at 1 uM in presence of [33P]ATP by filter binding assay relative to control.
Experiment [17] has as its target Dual specificity tyrosine-phosphorylation-regulated kinase 2 (Homo sapiens) (UniProt Q92630). Put plainly: Inhibition of human DYRK2 assessed as residual activity at 1 uM in presence of 33P-ATP by filter-binding assay relative to control.
For experiment [18], the target named is Receptor tyrosine-protein kinase erbB-4 (Homo sapiens) (UniProt Q15303). Put plainly: Inhibition of human HER4 assessed as residual activity at 1 uM in presence of [33P]ATP by filter binding assay relative to control.
The target of experiment [19] is 3-phosphoinositide-dependent protein kinase 1 (Homo sapiens) (UniProt O15530). Put plainly: Inhibition of human PDK1 assessed as residual activity at 1 uM in presence of [33P]ATP by filter binding assay relative to control.
Experiment [20] deals with Protein kinase C zeta type (Homo sapiens) (UniProt Q05513). Put plainly: Inhibition of human PKCZ assessed as residual activity at 1 uM in presence of [33P]ATP by filter binding assay relative to control.
The target in experiment [21] is Myosin light chain kinase, smooth muscle (Homo sapiens) (UniProt Q15746). Briefly: Inhibition of human SmMLCK assessed as residual activity at 1 uM in presence of [33P]ATP by filter binding assay relative to control.
The target in experiment [22] is MAP kinase-activated protein kinase 3 (Homo sapiens) (UniProt Q16644). Briefly: Inhibition of human MAPKAP-K3 assessed as residual activity at 1 uM in presence of [33P]ATP by filter binding assay relative to control.
The target in experiment [23] is MAP kinase-activated protein kinase 5 (Homo sapiens) (UniProt Q8IW41). Briefly: Inhibition of human PRAK assessed as residual activity at 1 uM in presence of [33P]ATP by filter binding assay relative to control.
Experiment [24] has as its target Serine/threonine-protein kinase 26 (Homo sapiens) (UniProt Q9P289). Briefly: Inhibition of human MST4 assessed as residual activity at 1 uM in presence of [33P]ATP by filter binding assay relative to control.

Serine/threonine-protein kinase 26 (Homo sapiens), sequence (Q9P289 2-416 limits assumed): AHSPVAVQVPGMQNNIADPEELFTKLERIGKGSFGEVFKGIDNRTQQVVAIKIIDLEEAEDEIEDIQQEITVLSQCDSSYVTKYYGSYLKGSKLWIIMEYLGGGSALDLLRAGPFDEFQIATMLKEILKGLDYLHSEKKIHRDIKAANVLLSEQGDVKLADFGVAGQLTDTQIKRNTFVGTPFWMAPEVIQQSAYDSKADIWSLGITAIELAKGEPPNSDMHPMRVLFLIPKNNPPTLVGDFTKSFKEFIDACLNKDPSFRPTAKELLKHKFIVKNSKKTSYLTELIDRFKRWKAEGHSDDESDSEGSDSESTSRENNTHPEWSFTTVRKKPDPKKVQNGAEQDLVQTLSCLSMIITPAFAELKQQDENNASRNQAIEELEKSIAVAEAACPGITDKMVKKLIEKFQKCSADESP
Mitogen-activated protein kinase 9 (Homo sapiens), sequence (P45984 whole entry, looked up): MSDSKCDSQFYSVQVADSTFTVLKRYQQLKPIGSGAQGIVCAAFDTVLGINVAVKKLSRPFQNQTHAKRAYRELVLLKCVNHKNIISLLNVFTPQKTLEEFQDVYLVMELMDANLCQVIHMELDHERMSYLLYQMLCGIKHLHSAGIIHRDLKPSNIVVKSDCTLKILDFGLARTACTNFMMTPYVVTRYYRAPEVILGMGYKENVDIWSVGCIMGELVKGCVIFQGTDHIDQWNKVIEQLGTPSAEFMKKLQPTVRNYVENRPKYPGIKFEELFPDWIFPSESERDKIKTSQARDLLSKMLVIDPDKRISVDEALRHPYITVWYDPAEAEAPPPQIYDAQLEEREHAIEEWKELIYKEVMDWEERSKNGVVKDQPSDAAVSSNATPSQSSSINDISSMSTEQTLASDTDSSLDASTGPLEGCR
Serine/threonine-protein kinase STK11 (Homo sapiens), sequence (Q15831 whole entry): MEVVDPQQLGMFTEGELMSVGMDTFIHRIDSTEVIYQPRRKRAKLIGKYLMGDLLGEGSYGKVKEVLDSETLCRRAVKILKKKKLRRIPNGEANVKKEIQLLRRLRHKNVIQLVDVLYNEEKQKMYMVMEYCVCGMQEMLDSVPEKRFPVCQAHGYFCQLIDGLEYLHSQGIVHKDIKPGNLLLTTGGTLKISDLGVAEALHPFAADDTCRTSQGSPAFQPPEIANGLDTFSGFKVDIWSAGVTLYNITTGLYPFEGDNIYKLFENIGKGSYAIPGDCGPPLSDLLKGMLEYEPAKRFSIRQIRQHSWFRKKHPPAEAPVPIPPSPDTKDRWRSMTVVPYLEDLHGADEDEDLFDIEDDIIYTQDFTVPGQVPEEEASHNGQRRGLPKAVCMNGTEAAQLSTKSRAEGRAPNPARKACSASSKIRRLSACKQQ
Myosin light chain kinase, smooth muscle (Homo sapiens), sequence (Q15746 whole entry): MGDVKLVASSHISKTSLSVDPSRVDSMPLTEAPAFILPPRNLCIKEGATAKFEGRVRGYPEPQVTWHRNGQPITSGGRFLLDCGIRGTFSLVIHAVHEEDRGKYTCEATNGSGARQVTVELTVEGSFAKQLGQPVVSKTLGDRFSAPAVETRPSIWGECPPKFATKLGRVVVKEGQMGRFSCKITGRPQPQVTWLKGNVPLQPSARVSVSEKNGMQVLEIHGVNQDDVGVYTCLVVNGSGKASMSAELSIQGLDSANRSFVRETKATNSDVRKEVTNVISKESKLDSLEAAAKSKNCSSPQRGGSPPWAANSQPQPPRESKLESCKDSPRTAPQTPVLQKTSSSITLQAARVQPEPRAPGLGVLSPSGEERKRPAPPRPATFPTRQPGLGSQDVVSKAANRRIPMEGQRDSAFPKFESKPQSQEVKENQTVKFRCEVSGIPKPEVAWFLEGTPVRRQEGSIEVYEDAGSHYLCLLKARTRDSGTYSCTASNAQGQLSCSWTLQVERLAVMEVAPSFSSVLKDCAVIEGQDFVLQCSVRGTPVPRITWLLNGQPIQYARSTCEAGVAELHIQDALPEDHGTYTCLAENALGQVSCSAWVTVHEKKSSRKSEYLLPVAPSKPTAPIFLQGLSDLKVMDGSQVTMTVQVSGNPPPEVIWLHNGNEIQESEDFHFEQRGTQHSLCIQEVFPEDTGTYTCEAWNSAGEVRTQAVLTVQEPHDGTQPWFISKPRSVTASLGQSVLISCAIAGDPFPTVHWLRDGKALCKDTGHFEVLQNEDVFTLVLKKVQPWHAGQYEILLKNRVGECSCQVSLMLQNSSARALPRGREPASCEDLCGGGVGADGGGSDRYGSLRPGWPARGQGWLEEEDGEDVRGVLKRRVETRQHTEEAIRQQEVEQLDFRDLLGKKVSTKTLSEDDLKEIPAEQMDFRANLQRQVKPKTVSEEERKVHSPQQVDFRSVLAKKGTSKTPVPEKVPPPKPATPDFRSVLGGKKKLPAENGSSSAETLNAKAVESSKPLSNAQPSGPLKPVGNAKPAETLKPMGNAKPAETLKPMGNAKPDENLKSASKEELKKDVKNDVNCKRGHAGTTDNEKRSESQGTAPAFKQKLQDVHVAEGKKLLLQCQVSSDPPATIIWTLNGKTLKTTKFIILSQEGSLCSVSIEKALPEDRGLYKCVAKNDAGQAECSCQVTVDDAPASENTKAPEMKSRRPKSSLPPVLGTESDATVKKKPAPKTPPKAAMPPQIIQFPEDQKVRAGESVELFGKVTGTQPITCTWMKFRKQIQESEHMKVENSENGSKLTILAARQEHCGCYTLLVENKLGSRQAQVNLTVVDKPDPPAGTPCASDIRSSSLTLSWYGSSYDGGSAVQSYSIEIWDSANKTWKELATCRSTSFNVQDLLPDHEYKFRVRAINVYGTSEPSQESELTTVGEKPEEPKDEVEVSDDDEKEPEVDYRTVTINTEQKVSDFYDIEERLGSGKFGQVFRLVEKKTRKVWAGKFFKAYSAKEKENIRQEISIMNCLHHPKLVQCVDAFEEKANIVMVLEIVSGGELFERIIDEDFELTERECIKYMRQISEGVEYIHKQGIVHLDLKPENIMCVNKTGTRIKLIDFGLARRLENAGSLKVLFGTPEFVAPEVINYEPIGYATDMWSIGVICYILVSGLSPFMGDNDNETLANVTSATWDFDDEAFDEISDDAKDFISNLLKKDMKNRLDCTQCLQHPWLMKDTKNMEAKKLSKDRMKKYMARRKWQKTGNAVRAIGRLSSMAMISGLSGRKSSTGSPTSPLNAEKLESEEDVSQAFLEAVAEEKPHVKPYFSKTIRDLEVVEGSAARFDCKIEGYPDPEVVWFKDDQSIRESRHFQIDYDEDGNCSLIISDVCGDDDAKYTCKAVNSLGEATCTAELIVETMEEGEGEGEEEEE
Serine/threonine-protein kinase MARK2 (Homo sapiens), sequence (Q7KZI7 whole entry): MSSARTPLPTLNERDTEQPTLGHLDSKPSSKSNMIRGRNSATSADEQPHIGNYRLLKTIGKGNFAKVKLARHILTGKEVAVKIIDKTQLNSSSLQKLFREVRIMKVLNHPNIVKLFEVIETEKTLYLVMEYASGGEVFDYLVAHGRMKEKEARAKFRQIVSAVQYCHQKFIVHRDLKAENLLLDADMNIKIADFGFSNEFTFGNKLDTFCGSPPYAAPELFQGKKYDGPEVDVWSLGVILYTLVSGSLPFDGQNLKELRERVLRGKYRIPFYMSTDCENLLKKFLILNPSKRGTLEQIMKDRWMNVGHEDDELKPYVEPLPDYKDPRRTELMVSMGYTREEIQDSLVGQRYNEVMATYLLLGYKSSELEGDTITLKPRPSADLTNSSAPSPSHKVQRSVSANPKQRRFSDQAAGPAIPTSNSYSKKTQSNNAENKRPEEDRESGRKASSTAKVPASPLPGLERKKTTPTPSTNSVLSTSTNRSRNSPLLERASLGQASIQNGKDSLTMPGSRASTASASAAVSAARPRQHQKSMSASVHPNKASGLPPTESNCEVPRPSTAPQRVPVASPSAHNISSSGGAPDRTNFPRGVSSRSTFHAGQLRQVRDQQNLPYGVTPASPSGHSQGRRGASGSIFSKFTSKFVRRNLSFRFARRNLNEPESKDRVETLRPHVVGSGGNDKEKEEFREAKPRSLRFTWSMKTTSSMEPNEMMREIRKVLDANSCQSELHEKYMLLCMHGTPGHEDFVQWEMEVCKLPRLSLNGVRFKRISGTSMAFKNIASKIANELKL
MAP kinase-activated protein kinase 5 (Homo sapiens), sequence (Q8IW41 whole entry): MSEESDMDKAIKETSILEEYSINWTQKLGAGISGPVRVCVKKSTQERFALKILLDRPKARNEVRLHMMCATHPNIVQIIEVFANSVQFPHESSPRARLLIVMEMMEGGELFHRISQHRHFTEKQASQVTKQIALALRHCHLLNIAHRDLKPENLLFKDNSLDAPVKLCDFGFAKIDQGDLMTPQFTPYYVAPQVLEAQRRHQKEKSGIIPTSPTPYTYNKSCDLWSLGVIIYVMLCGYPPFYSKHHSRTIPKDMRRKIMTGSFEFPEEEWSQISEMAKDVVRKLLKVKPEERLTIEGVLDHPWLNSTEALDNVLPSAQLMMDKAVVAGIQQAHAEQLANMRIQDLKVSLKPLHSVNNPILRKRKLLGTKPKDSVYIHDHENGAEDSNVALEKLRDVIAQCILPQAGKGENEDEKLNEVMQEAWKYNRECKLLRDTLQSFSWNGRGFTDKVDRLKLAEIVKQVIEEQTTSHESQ

In the case of `NCCCC[C@H](NC(=O)[C@H](CC(=O)O)NC(=O)[C@H](CC(=O)O)NC(=O)[C@H](CC(=O)O)NC(=O)[C@H](CC(=O)O)NC(=O)[C@H](CC(=O)O)NC(=O)[C@H](CC(=O)O)NC(=O)CCCCCCCCOc1nc2cc(C(=O)O)ccc2c2cnccc12)C(=O)O` (X1-DDDDDDK-OH), the Activity was determined as 84% in experiment [1]; 92% in experiment [2]; 118% in experiment [3]; 83% in [4]; 9% in experiment [5]; 41% in experiment [6]. Moreover, the Activity is 72% in experiment [7]; 85% in experiment [8]; 93% in experiment [9]; 79% in experiment [10]; 75% in experiment [11]; 93% in experiment [12]. The Activity in experiment [13] stood at 67%; in experiment [14], 84%; in [15] it was 100%; in experiment [16], 91%; in experiment [17], 5%; in [18], 90%. The Activity in [19] came out at 84%; in experiment [20] it was 95%; in experiment [21], 98%; in [22], 82%; in experiment [23] it was 92%; in experiment [24], 67%.
